Measured values reported in publication PMC9338045, “An acquired phosphatidylinositol 4-phosphate transport initiates T-cell deterioration and leukemogenesis” (Nature Communications, 2022).
Where two headings read alike, the source gives them in different places.

How the values were obtained:
OSBP = biological target: T1, OSBP (Homo sapiens, UniProt P22059); assay: SPR (Biacore 8K, protein immobilised on CM5 by amine coupling, kon/koff); format: binding
T1 construct: full-length cDNA in pGEX-4T-1, E. coli Rosetta(DE3), GST fusion, GST tag removed by thrombin
T1 sequence (P22059 1-807): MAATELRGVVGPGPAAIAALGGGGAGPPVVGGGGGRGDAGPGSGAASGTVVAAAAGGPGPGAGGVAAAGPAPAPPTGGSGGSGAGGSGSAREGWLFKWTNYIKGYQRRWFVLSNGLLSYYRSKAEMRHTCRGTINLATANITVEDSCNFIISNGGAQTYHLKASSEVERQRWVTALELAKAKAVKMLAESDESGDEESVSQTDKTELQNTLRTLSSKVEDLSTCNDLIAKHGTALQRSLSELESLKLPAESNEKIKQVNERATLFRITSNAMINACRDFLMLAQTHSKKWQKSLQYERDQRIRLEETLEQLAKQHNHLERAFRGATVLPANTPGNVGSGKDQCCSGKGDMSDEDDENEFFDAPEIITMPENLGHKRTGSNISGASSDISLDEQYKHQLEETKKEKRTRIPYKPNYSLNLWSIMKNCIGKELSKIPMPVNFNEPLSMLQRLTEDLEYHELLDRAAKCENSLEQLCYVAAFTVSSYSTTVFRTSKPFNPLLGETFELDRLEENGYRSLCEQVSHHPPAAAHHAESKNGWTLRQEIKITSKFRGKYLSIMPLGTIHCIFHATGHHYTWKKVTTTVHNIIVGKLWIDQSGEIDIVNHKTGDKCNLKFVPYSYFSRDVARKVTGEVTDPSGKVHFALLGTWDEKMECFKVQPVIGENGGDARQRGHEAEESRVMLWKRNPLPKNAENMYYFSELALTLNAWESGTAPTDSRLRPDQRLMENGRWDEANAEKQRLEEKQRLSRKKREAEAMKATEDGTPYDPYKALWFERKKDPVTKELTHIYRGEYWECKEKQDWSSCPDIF

ORP4L = biological target: T2, ORP4L (Homo sapiens, UniProt Q969R2); assay: as above; format: binding; details: PBST pH 7.4, 25 °C; acyl chains of PI(4)P not told for this test (diC8 named only for the competition test)
T2 construct: gene OSBP2; full-length cDNA in pGEX-4T-1, E. coli Rosetta(DE3), GST fusion, GST tag removed by thrombin
T2 sequence (Q969R2 1-916): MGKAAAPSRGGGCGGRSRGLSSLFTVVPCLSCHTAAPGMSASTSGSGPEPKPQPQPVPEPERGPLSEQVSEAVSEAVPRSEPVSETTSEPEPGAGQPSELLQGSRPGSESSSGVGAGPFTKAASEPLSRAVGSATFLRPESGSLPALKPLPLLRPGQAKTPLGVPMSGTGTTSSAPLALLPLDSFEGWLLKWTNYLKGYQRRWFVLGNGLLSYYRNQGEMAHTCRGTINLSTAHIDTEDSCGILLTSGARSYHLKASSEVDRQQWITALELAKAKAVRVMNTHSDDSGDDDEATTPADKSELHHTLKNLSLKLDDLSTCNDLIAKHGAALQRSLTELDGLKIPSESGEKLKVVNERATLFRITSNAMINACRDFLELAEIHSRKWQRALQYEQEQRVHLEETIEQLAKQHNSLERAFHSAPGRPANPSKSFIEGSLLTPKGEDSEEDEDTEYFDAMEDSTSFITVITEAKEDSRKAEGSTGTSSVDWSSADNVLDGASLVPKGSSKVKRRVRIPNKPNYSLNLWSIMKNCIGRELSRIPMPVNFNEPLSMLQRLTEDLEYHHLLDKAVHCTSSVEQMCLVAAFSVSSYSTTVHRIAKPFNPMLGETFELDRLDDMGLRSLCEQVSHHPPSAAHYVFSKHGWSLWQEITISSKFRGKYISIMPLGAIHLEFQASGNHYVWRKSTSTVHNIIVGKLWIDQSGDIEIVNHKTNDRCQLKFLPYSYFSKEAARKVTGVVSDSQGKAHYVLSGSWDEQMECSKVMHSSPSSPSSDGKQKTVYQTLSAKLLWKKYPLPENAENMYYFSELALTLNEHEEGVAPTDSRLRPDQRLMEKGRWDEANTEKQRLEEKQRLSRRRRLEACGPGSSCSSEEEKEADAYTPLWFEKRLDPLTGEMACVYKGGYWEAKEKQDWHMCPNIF

Compound | Kd (OSBP) [µM] | Kd (OSBP; PBST pH 7.4, 25 °C, acyl chains of PI(4)P not told for this test (diC8 named only for the competition test)) [µM] | Kd (ORP4L) [µM]
COc1ccc(C(=O)O[C@H]2[C@H](O[C@@H]3[C@@H](OC(C)=O)[C@H](O[C@H]4C[C@H]5[C@@H]6CC=C7C[C@@H](O)CC[C@]7(C)[C@H]6CC[C@]5(C)[C@@]4(O)[C@H](C)C(=O)CCC(C)C)OC[C@@H]3O)OC[C@@H](O)[C@@H]2O)cc1 [OSW-1] | 1.8 ± 0.37 |  | 
PI(4)P |  | 4.3 ± 1.2 | 12.7 ± 2.1
